Measured values as given in patent US9469631B2 (Boehringer Ingelheim International GmbH, priority 2012, dated 2016).

Target: human GPR119 (Homo sapiens (Human), UniProt Q8TDV5)
Experiment: AlphaScreen cAMP assay in MIN6 cells stably transfected with human GPR119
Assay type: cell-based
Settings: Min-6/hGPR119 cells, 45 min incubation at room temperature
Procedure: The compounds of formula I according to the invention modulate the activity of the G-protein-coupled receptor GPR119. The effect of the compounds on the activation of GPR119 and on the stimulation of intracellular cAMP concentration is determined using the AlphaScreen cAMP Assay Kit (Cat. No. #6760625R) made by PerkinElmer.
MIN6 cells [Miyazaki J et al. Endocrinology. 1990 July; 127(1):126-32] are stably transfected with an expression vector for human GPR119 cDNA (Acc. No. NP_848566). Min-6/hGPR119 cells are cultured in DMEM, 10% FBS, 50 μM β-mercaptoethanol, 0.3 mg/mL Geniticin, 2 mM GlutaMAX at 37° C. 5% CO2. For the assay, the cells are seeded in Optiplates (white, 384-well, 160W-barcoded, TC, sterile with lid, Cat. No. #6007688 (Perkin Elmer); 10000 cells/well; 50 μl). The plates covered with lids are then incubated for 24 hours at 37° C./5% CO2. After the medium is aspirated from the wells completely, 10 μl of the test compound are added, the compounds are diluted using stimulating buffer (140 mM NaCl, 3.6 mM KCl, 0.5 mM NaH2PO4, 0.5 mM MgSO4, 1.5 mM CaCl2, 10 mM Hepes, 5 mM NaHCO3; pH 7.4. 0.5 mM IBMX and 0.1% BSA, the final DMSO concentration is 1%). After 45 minutes incubation at room temperature (approx. 20° C.), the cAMP concentrations are determined using the AlphaScreen cAMP Assay Kit (Cat. No. #6760625R from PerkinElmer).

human GPR119, sequence (Q8TDV5 whole entry): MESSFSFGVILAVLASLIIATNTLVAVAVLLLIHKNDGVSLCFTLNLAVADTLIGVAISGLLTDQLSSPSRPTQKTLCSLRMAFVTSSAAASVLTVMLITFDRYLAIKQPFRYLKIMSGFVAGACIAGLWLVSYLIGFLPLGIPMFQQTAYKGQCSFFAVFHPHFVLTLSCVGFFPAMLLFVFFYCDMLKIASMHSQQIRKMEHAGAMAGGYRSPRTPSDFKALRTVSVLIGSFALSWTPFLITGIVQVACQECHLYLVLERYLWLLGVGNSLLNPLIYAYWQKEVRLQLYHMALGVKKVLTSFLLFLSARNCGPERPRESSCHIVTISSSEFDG

Which EC50 does the source give for `O=C(OCc1ccccc1)N1CCC(N(C(=O)c2ccc(-c3cnco3)cc2)C2CC2)CC1` [Example 126, 4-[Cyclopropyl-(4-oxazol-5-yl-benzoyl)-amino]-piperidine-1-carboxylic acid benzyl ester] here?
The EC50 was 128 nM.

With `CC(=O)Nc1nnc(-c2ccc(C(=O)N(C3CC3)C3CCN(C(=O)OC(C)(C)C)CC3)cc2)s1` [Example 77, 4-{[4-(5-Acetylamino-[1,3,4]thiadiazol-2-yl)-benzoyl]-cyclopropyl-amino}-piperidine-1-carboxylic acid tert-butyl ester] as the compound, how does the EC50 read?
Its EC50 is 394 nM.

For `CC(C)(C)OC(=O)N1CCC(N(C(=O)c2ccc(-c3nnc(N)s3)cc2)C2CC2)CC1` [Example 66, 4-{[4-(5-Amino-[1,3,4]thiadiazol-2-yl)-benzoyl]-cyclopropyl-amino}-piperidine-1-carboxylic acid tert-butyl ester], which EC50 is on record?
Its EC50 is 875 nM.

Which EC50 does the source give for `Cc1ccc(-c2ccc(C(=O)N(C3CC3)C3CCN(C(=O)OC(C)(C)C)CC3)cc2)nn1` [Example 16, 4-{Cyclopropyl-[4-(6-methyl-pyridazin-3-yl)-benzoyl]-amino}-piperidine-1-carboxylic acid tert-butyl ester] here?
The EC50 was 76 nM.

For `CC1CN(C(=O)OC(C)(C)C)CCC1N(C(=O)c1ccc(-c2cnco2)cc1)C1CC1` (stereo not shown) [Example 2, 4-[Cyclopropyl-(4-oxazol-5-yl-benzoyl)-amino]-3-methyl-piperidine-1-carboxylic acid tert-butyl ester], which EC50 is on record?
Its EC50 is 15 nM.

`CC(C)(C)OC(=O)N1CCC(N(C(=O)c2ccc(-c3ccc(S(C)(=O)=O)cc3F)cc2)C2CC2)CC1` [Example 110, 4-[Cyclopropyl-(2′-fluoro-4′-methanesulfonyl-biphenyl-4-carbonyl)-amino]-piperidine-1-carboxylic acid tert-butyl ester] was tested. Which EC50 did it give?
Its EC50 is 44 nM.

With `Cc1noc(-c2ccc(C(=O)N(C3CC3)C3CCN(C(=O)OC(C)(C)C)CC3)cc2)n1` [Example 60, 4-{Cyclopropyl-[4-(3-methyl-[1,2,4]oxadiazol-5-yl)-benzoyl]-amino}-piperidine-1-carboxylic acid tert-butyl ester] as the compound, how does the EC50 read?
The EC50 was 347 nM.

Which EC50 does the source give for `CC(C)(C)OC(=O)N1CCC(N(C(=O)c2ccc(-c3cnco3)c(N)c2)C2CC2)CC1` [Example 8, 4-[(3-Amino-4-oxazol-5-yl-benzoyl)-cyclopropyl-amino]-piperidine-1-carboxylic acid tert-butyl ester] here?
The EC50 was 169 nM.

For `CN(C)Cc1ccc(-c2ccc(C(=O)N(C3CC3)C3CCN(C(=O)OC(C)(C)C)CC3)cc2)cc1` [Example 112, 4-[Cyclopropyl-(4′-dimethylaminomethyl-biphenyl-4-carbonyl)-amino]-piperidine-1-carboxylic acid tert-butyl ester], which EC50 is on record?
The EC50 was 1740 nM.

`CC(C)(C)OC(=O)N1CCC(N(C(=O)c2ccc(-n3cccn3)cc2)C2CC2)CC1` [Example 71, 4-[Cyclopropyl-(4-pyrazol-1-yl-benzoyl)-amino]-piperidine-1-carboxylic acid tert-butyl ester] was tested. Which EC50 did it give?
The EC50 was 637 nM.

`CC(C)(C)OC(=O)N1CC[C@@H](N(C(=O)c2ccc(-c3cnco3)cc2)C2CC2)[C@@H](F)C1` (single isomer, unassigned) [Example 41] was tested. Which EC50 did it give?
Its EC50 is 30 nM.

Which EC50 does the source give for `CC(C)(C)OC(=O)N1CCC(N(C(=O)c2ccc(-c3cocn3)cc2)C2CC2)CC1` [Example 44, 4-[Cyclopropyl-(4-oxazol-4-yl-benzoyl)-amino]-piperidine-1-carboxylic acid tert-butyl ester] here?
The EC50 was 298 nM.

With `CC(C)(C)OC(=O)N1CCC(N(C(=O)c2ccc(-c3ccc(C#N)cc3)cc2)C2CC2)CC1` [Example 54, 4-[(4′-Cyano-biphenyl-4-carbonyl)-cyclopropyl-amino]-piperidine-1-carboxylic acid tert-butyl ester] as the compound, how does the EC50 read?
Its EC50 is 84 nM.

For `CC(C)(C)OC(=O)N1CC[C@H](N(C(=O)c2ccc(-c3cnco3)cc2)C2CC2)[C@@H](F)C1` (single isomer, unassigned) [Example 38], which EC50 is on record?
The EC50 was 174 nM.

`CC(C)(C)OC(=O)N1CCC(N(C(=O)c2ccc(-n3cnc(-c4ccccc4)c3)c(Cl)c2)C2CC2)CC1` [Example 81, 4-{[3-Chloro-4-(4-phenyl-imidazol-1-yl)-benzoyl]-cyclopropyl-amino}-piperidine-1-carboxylic acid tert-butyl ester] was tested. Which EC50 did it give?
The EC50 was 148 nM.

`CC(C)(C)OC(=O)N1CCC(N(C(=O)c2ccc(-c3ccc(NS(C)(=O)=O)cc3)cc2)C2CC2)CC1` [Example 92, 4-[Cyclopropyl-(4′-methanesulfonylamino-biphenyl-4-carbonyl)-amino]-piperidine-1-carboxylic acid tert-butyl ester] was tested. Which EC50 did it give?
The EC50 was 79 nM.

With `CCOC(=O)N1CCC(N(C(=O)c2ccc(-c3cnco3)cc2)C2CC2)CC1` [Example 117, 4-[Cyclopropyl-(4-oxazol-5-yl-benzoyl)-amino]-piperidine-1-carboxylic acid ethyl ester] as the compound, how does the EC50 read?
Its EC50 is 222 nM.

With `CC(C)(C)OC(=O)N1CCC(N(C(=O)c2ccc(-c3ccc(O)nc3)cc2)C2CC2)CC1` [Example 108, 4-{Cyclopropyl-[4-(6-hydroxy-pyridin-3-yl)-benzoyl]-amino}-piperidine-1-carboxylic acid tert-butyl ester] as the compound, how does the EC50 read?
The EC50 was 461 nM.

How did the EC50 turn out when `CC(C)(C)OC(=O)N1CCC(N(C(=O)c2ccc(-n3cccc3)cc2)C2CC2)CC1` [Example 64, 4-[Cyclopropyl-(4-pyrrol-1-yl-benzoyl)-amino]-piperidine-1-carboxylic acid tert-butyl ester] was run?
Its EC50 is 278 nM.

For `CC(C)(C)OC(=O)N1CCC(N(C(=O)c2ccc(-c3ccc(C#N)nc3)cc2)C2CC2)CC1` [Example 100, 4-{[4-(6-Cyano-pyridin-3-yl)-benzoyl]-cyclopropyl-amino}-piperidine-1-carboxylic acid tert-butyl ester], which EC50 is on record?
The EC50 was 34 nM.

How did the EC50 turn out when `COC(=O)N1CCC(N(C(=O)c2ccc(-c3cnco3)cc2)C2CC2)CC1` [Example 116, 4-[Cyclopropyl-(4-oxazol-5-yl-benzoyl)-amino]-piperidine-1-carboxylic acid methyl ester] was run?
Its EC50 is 1570 nM.

With `CC(C)(C)OC(=O)N1CCC(N(C(=O)c2ccc(-c3ccc(S(N)(=O)=O)cc3)cc2)C2CC2)CC1` [Example 105, 4-[Cyclopropyl-(4′-sulfamoyl-biphenyl-4-carbonyl)-amino]-piperidine-1-carboxylic acid tert-butyl ester] as the compound, how does the EC50 read?
The EC50 was 115 nM.

Which EC50 does the source give for `CNC(=O)c1ccc(-c2ccc(C(=O)N(C3CC3)C3CCN(C(=O)OC(C)(C)C)CC3)cc2)nc1` [Example 30, 4-{Cyclopropyl-[4-(5-methylcarbamoyl-pyridin-2-yl)-benzoyl]-amino}-piperidine-1-carboxylic acid tert-butyl ester] here?
Its EC50 is 171 nM.

For `CC(C)(C)OC(=O)N1CCC(N(C(=O)c2cc(F)c(-c3cnco3)c(F)c2)C2CC2)CC1` [Example 33, 4-[Cyclopropyl-(3,5-difluoro-4-oxazol-5-yl-benzoyl)-amino]-piperidine-1-carboxylic acid tert-butyl ester], which EC50 is on record?
The EC50 was 9 nM.

`CC1(OC(=O)N2CCC(N(C(=O)c3ccc(-c4cnco4)cc3)C3CC3)CC2)CC1` [Example 20, 4-[Cyclopropyl-(4-oxazol-5-yl-benzoyl)-amino]-piperidine-1-carboxylic acid 1-methyl-cyclopropyl ester] was tested. Which EC50 did it give?
The EC50 was 52 nM.

How did the EC50 turn out when `Cn1ncnc1-c1ccc(C(=O)N(C2CC2)C2CCN(C(=O)OC(C)(C)C)CC2)cc1` [Example 18, 4-{Cyclopropyl-[4-(2-methyl-2H-[1,2,4]triazol-3-yl)-benzoyl]-amino}-piperidine-1-carboxylic acid tert-butyl ester] was run?
Its EC50 is 1000 nM.

With `CC(=O)Nc1nc(-c2ccc(C(=O)N(C3CC3)C3CCN(C(=O)OC(C)(C)C)CC3)cc2)ns1` [Example 74, 4-{[4-(5-Acetylamino-[1,2,4]thiadiazol-3-yl)-benzoyl]-cyclopropyl-amino}-piperidine-1-carboxylic acid tert-butyl ester] as the compound, how does the EC50 read?
Its EC50 is 886 nM.

With `COC1CN(C(=O)OC(C)(C)C)CCC1N(C(=O)c1ccc(-c2cnco2)cc1)C1CC1` (stereo not shown) [Example 45, 4-[Cyclopropyl-(4-oxazol-5-yl-benzoyl)-amino]-3-methoxy-piperidine-1-carboxylic acid tert-butyl ester] as the compound, how does the EC50 read?
The EC50 was 15 nM.

How did the EC50 turn out when `CN(C)C(=O)Nc1nc(-c2ccc(C(=O)N(C3CC3)C3CCN(C(=O)OC(C)(C)C)CC3)cc2)ns1` [Example 72, 4-(Cyclopropyl-{4-[5-(3,3-dimethyl-ureido)-[1,2,4]thiadiazol-3-yl]-benzoyl}-amino)-piperidine-1-carboxylic acid tert-butyl ester] was run?
The EC50 was 1170 nM.

For `Cc1cn(-c2ccc(C(=O)N(C3CC3)C3CCN(C(=O)OC(C)(C)C)CC3)cc2)c(C)n1` [Example 55, 4-{Cyclopropyl-[4-(2,4-dimethyl-imidazol-1-yl)-benzoyl]-amino}-piperidine-1-carboxylic acid tert-butyl ester], which EC50 is on record?
Its EC50 is 927 nM.

How did the EC50 turn out when `CC(C)(C)OC(=O)N1CCC(N(C(=O)c2ccc(-c3ccc(C#N)s3)cc2)C2CC2)CC1` [Example 89, 4-{[4-(5-Cyano-thiophen-2-yl)-benzoyl]-cyclopropyl-amino}-piperidine-1-carboxylic acid tert-butyl ester] was run?
The EC50 was 24 nM.
